Our source for the IC50, AC50 and EC50 values is ChEMBL document CHEMBL1201862, “PubChem BioAssay data set” (2004).

As a reminder, the IC50 is the midpoint of a concentration-inhibition curve. One may read the AC50 as the midpoint of the concentration-response curve, whichever way the signal moves. The term EC50 denotes the concentration needed to bring the measured effect to its halfway point.

In series [1] the target is T1, Rac GTPase-activating protein 1 (Homo sapiens, UniProt Q9H0H5).
T1 sequence (Q9H0H5 whole entry): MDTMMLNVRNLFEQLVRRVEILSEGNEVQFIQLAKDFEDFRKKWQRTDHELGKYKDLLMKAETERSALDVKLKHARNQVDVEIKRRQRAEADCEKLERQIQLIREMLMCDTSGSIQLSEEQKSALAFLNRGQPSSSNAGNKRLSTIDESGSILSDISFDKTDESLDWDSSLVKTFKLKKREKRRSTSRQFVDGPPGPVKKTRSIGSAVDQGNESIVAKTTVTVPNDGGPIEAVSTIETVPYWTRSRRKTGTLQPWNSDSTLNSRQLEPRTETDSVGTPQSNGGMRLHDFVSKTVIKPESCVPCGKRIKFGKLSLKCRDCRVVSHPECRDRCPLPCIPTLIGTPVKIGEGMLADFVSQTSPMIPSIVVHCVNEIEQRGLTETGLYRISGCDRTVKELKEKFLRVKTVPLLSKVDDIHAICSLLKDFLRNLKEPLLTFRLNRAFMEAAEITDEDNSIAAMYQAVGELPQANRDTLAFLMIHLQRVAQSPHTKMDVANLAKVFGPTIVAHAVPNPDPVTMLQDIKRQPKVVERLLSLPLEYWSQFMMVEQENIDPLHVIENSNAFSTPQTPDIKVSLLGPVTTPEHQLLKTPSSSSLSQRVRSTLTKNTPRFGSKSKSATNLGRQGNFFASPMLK
Nature of the series: blockers of MgcRacGAP-driven Rac1 GTP hydrolysis – biochemical, ADP Hunter fluorescence, primary and confirmatory, confirmation (AID 624330). The format is functional.

Series [2] concerns the target Cytochrome P450 2D6 (Homo sapiens, UniProt P10635).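 Also: CYP2D6 member of a cytochrome P450 panel assay.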
The subject of series [3] is Streptococcus sp. 'group A'. The experiment in a line: Streptococcus pyogenes SK(-)GAS viability under kanamycin – luminescence, BacTiterGlo, confirmation, counter-screen for streptokinase expression inhibitor project, dose response (AID 1900). The format is functional, organism-based. (The purpose of a counterscreen is to sort out artefacts and off-target activity.)

Series [4] deals with T2, Streptokinase A (Streptococcus pyogenes serotype M1, UniProt P10520).
T2 sequence (P10520 whole entry): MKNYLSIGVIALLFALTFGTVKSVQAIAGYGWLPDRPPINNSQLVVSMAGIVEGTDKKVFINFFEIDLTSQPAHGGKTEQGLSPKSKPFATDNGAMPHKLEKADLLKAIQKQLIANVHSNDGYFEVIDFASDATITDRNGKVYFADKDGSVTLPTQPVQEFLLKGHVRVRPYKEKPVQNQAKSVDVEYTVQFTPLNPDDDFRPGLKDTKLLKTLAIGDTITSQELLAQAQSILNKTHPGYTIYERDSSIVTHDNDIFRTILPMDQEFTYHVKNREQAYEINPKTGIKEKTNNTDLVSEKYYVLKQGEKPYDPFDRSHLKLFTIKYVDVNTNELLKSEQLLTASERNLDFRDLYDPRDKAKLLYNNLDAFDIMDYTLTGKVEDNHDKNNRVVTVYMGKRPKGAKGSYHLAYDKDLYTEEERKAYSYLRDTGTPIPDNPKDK
The experiment in a line: viability-normalized secreted streptokinase activity reduction – plasminogen activation absorbance, OD405, dose response (AID 1914).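 Also: secreted streptokinase activity via plasminogen activation per viability signal from cell pellet.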 In kind it is functional, Streptococcus pyogenes M1 GAS.

The subject of series [5] is Streptococcus. Nature of the series: GAS UMAA2166 growth inhibition – luminescence, BacTiterGlo, counter-screen for streptokinase expression inhibitor project, dose response (AID 1915).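 Also: potency for reduction of bacterial viability or growth.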 The format is functional, organism-based.
Series [6] can be described thus: Luminescence Cell-Based Dose Retest to Confirm Inhibitors of Cancer Stem Cells. [Related pubchem assays (depositor defined):AID2717, AID2721]. The format is functional. The note with it: Homo sapiens.
The target of series [7] is Cytochrome P450 2C19 (Homo sapiens, UniProt P33261). The experiment in a line: Cytochrome panel assay with activity outcomes. Panel member name: p450-cyp2c19 Compounds with AC50 equal or less than 10 uM are considered active. The format is functional.
Sequence of Cytochrome P450 2C19 (P33261 whole entry): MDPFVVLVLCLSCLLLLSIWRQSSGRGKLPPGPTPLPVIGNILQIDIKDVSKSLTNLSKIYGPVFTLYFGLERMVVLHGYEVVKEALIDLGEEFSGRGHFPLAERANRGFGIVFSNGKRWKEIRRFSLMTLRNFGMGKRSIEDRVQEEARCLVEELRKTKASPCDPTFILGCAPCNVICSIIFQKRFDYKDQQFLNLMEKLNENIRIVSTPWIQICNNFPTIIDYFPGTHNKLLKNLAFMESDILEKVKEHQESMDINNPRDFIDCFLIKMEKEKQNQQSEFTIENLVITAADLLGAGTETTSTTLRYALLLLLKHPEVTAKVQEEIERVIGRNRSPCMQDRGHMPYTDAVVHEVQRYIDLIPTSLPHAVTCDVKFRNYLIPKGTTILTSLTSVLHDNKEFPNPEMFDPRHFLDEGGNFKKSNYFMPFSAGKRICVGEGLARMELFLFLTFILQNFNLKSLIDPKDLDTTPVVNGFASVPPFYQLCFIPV
Series [8] has as its target Cytochrome P450 2C9 (Homo sapiens, UniProt P11712).
Series [9] deals with T3, Replicative DNA helicase DnaB (Mycobacterium tuberculosis, UniProt P9WMR3).
T3 sequence (P9WMR3 whole entry): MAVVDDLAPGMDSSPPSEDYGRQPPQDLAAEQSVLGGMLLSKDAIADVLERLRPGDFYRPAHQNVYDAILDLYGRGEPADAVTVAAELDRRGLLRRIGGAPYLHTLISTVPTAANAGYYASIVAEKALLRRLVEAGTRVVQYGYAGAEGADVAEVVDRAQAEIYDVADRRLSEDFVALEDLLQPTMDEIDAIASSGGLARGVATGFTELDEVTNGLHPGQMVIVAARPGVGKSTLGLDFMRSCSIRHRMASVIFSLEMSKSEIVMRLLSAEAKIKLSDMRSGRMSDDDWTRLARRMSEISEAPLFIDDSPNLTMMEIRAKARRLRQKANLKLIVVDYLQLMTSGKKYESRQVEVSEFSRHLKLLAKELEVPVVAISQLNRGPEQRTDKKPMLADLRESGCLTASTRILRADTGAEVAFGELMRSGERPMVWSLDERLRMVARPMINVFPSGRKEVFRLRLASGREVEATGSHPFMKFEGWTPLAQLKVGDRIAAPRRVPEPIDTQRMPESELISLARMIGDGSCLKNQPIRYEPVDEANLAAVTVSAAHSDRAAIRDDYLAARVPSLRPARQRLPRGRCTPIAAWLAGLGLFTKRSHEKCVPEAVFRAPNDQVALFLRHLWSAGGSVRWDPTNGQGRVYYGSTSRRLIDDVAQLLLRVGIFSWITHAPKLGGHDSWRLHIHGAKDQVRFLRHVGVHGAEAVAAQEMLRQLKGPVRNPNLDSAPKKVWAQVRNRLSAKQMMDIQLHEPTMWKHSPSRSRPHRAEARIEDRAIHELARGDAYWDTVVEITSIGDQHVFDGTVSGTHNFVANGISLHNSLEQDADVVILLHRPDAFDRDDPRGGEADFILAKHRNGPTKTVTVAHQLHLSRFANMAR
The experiment in a line: DnaB intein splicing inhibitors, dose response, biochemical, cell-free fluorescence (AID 449749). The format is functional.

In series [10] the target is T4, Protein RecA (Mycobacterium tuberculosis, UniProt P9WHJ3).
T4 sequence (P9WHJ3 whole entry): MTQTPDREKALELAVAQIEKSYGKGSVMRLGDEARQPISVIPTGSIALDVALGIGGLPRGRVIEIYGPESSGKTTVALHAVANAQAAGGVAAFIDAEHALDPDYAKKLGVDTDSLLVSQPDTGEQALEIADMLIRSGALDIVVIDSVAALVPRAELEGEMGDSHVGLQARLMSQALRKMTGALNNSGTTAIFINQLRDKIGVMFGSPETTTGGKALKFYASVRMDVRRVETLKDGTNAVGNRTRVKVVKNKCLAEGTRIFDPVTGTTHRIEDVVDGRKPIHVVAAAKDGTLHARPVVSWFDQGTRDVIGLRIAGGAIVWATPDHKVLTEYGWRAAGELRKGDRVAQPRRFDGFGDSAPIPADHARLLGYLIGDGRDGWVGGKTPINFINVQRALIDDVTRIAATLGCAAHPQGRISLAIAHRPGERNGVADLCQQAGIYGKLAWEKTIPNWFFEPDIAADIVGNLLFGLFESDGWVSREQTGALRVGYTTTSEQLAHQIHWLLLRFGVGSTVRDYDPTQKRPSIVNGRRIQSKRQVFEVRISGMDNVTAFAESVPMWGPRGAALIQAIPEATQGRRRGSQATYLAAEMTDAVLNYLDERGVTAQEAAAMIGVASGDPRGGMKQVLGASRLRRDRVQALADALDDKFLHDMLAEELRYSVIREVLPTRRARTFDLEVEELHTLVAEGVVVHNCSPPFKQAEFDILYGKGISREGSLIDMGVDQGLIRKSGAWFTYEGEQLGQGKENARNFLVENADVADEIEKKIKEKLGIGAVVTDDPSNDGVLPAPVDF
The experiment in a line: Fluorescence Cell-Free Homogeneous Dose Retest to Identify Inhibitors of RecA-Intein Splicing Activity. [Related pubchem assays (depositor defined):AID2097, AID2223, AID489010, AID492950]. In kind it is functional.

Activity calls are given as the source filed them. Where only a bound is given, the exact number is not on record here.

Sequence of Cytochrome P450 2D6 (P10635 whole entry): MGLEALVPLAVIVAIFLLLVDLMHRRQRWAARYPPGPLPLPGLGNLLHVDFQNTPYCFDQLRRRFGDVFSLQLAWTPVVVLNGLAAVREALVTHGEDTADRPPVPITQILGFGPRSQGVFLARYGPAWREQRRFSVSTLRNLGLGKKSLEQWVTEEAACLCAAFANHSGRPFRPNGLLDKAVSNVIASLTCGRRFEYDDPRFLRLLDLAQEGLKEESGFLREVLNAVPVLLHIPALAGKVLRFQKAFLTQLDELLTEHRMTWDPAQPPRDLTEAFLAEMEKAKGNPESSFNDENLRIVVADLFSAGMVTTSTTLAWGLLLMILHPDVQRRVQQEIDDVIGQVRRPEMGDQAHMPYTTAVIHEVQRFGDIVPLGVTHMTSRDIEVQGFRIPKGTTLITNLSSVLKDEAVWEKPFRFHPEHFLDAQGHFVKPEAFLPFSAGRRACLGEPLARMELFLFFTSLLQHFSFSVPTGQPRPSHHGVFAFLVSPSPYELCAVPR
Sequence of Cytochrome P450 2C9 (P11712 whole entry): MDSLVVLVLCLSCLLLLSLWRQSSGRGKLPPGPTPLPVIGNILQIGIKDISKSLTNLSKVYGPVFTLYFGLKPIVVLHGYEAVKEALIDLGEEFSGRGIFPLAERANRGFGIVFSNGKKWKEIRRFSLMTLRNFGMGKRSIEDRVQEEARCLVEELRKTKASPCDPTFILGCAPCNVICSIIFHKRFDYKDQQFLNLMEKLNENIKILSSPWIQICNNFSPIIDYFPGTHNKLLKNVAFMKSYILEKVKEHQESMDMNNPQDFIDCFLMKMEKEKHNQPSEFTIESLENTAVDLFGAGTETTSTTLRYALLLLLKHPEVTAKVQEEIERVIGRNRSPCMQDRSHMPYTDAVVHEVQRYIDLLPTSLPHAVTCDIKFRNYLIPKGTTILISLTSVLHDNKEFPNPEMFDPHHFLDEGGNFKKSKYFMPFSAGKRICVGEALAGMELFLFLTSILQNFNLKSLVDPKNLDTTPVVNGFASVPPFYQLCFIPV

Take `CC1CCC/C(=C\c2ccc(O)cc2)C1=O` (stereo not drawn): the IC50 in [1] was 26.6 µM (active).

`Fc1ccccc1OCCCCSc1ncccn1`: the AC50 in series [2] is 17.8 µM (inconclusive).

For the compound `CCOC(=O)c1c(S(=O)(=O)N2CCCCCC2)c(C)n(C)c1C`, the EC50 in series [3], in [4] and in [5] was > 150 µM (not active) each time.

With `COC(=O)CSc1nnc(C)n1-c1cccc(OC)c1`, the AC50 in series [2] is 3.16 µM (inconclusive).

Turning to `Cc1cc(=O)oc2cc(OCC(=O)N3CCN(C(=O)C4COc5ccccc5O4)CC3)ccc12` (stereo not drawn), the figures for the EC50 in series [3], in series [4] and in series [5] were 2.83 µM (active), > 50 µM (not active) and 10.4 µM (active), respectively.

Regarding `Cc1oc2cc(Br)c(O)c(Br)c2c1-c1ccccc1`, the EC50 was 8.24 µM (active) in series [3], > 150 µM (not active) in series [4] and 8.18 µM (active) in series [5].

On to `c1ccc(-c2cc(-c3ccncc3)nc3ccc4ccccc4c23)cc1`, for which the 50% effective concentration (EC50) in series [3] was 3.37 µM (active); in series [4], > 150 µM (not active); in series [5], 8.51 µM (active). The concentration at half-maximal activity (AC50) in series [6] is 3.39 µM (active).

For the compound `C[C@]12CC[C@@H]3c4ccc(OC(=O)c5ccccc5)cc4CC[C@H]3[C@@H]1CC[C@@H]2O` [ESTRADIOL BENZOATE], the concentration giving a half-maximal response (EC50) in [3] is 2.24 µM (active); in [4], 2.43 µM (active); in [5], 4.49 µM (active).

As to `CC(C)(C)c1nnc(N/N=C/c2ccc(O)cc2)n(N)c1=O`, the IC50 in [1] is 123 µM (active).

In the case of `c1cncc(-c2cncnc2NCc2cccs2)c1`, in series [2], the half-maximal activity concentration (AC50) is 39.8 µM (inconclusive).

As for `Cc1ccc(C)c(OCCCCN2CCCCC2)c1`, the IC50 in series [1] is 176 µM (active).

On to `O=C(/C(=N\Nc1ccc([N+](=O)[O-])cc1)Sc1nnnn1-c1ccccc1)c1ccccc1`, for which the 50% effective concentration (EC50) in [3] is 5.19 µM (active); in series [4] it was > 150 µM (not active); in series [5] it was 35.8 µM (active).

In the case of `COc1cccc(-c2cncnc2Nc2ccc(F)cc2)c1`, in [2], the AC50 is 39.8 µM (inconclusive).

Turning to `O=S(=O)(c1ccccc1)N1CCC2(CCCN(c3ccccc3)C2)CC1`, the AC50 in series [2] was 10 µM (inconclusive).

Take `CC(C)(C)OC(=O)[C@H](Cc1ccccc1)NC(=O)c1[nH]cnc1C(=O)Nc1ccc(Cl)cc1`: the EC50 was 3.71 µM (active) in [3], 21.5 µM (active) in [4] and 11.1 µM (active) in series [5]. The half-maximal activity concentration (AC50) in series [6] is 4.51 µM (active).

As for `CCCCn1c(C)cc2cc(O)ccc21`, in series [1], the concentration for half-maximal inhibition (IC50) is 26.9 µM (active).

Consider `O=C(CNC(=O)c1ccncc1)N/N=C/c1ccc(O)cc1O`, for which the IC50 in series [1] was 75.5 µM (active).

In the case of `COc1ccc(C2c3c(ncn(CCN4CCOCC4)c3=N)Oc3ccc4ccccc4c32)cc1OC` (stereo not drawn), the values for the concentration at half-maximal activity (AC50) in series [7] (read-out: AC50) and in series [2] were 25.1 µM (inconclusive) and 15.8 µM (inconclusive), respectively.

`O=C(CN1CCN(c2ccc(O)cc2)CC1)NCC(=O)Nc1ccc(F)c(F)c1F`: the concentration for half-maximal inhibition (IC50) in series [1] is 47 µM (active).

For the compound `COc1cccc(Cn2c(=O)cnc3cnc(Oc4cccc(Cl)c4)nc32)c1`, the AC50 in series [2] is 39.8 µM (inconclusive).

As for `Cc1cc(-c2c(C)[nH]n(-c3ccc(Cl)cc3)c2=O)n[nH]1`, in series [4], the half-maximal effective concentration (EC50) was > 150 µM (not active).

For `Cc1c(O)ccc(NC(=O)/C=C/c2ccccc2)c1C`, the IC50 in series [1] was 41.8 µM (active).

In the case of `O=C(O)CC[P+](c1ccccc1)(c1ccccc1)c1ccccc1`, the AC50 entry in series [7] was “inconclusive”; in series [2] it was 3.98 µM (inconclusive).

Consider `CCCn1c(N)c(C(=O)CSc2nc(C)cs2)c(=O)n(C)c1=O`, for which the AC50 in series [2] was 20 µM (inconclusive); in [8], 28.2 µM (inconclusive).

For the compound `Cc1ccccc1C(OCC(O)CN1CCN(CCO)CC1)c1ccccc1` (stereo not drawn), in [1], the IC50 is 80.2 µM (active).

For the compound `O=C(NCc1ccccc1)c1cccc(COc2cccc(Cl)c2)c1`, the AC50 in [2] is 31.6 µM (inconclusive).

Turning to `Nc1ccccc1Sc1nc2ccccc2[nH]1`, the EC50 in series [3] is 21.3 µM (active); in series [4], > 150 µM (not active); in [5] it was > 150 µM (not active).

On to `CC1=CC(C)(C)N(C(=O)CNC2CCCC2)c2cc(C)ccc21`, for which the IC50 in series [1] was 158 µM (active).

Consider `Cc1nc(Nc2ccc(O)cc2)c2c3c(sc2n1)CCCC3`, for which, in series [9], the AC50 is > 380 µM (inactive). The EC50 in [10] was 125 µM (active). In series [1], the IC50 was 28.8 µM (active).

Regarding `Cc1cc(OC(=O)CCCNC(=O)OC(C)(C)C)c2c3c(c(=O)oc2c1)CCC3`, the half-maximal activity concentration (AC50) in [2] was 15.8 µM (inconclusive).
